Assays:
[1] = test system: vascular endothelial growth factor (VEGF)-induced angiogenesis; conditions: in vitro and in vivo; Kim et al., 2010; cited from earlier work
NPC = assay: Preliminary investigation of NPC integrity under OMe-Syn treatment
NUP153-expressing phage = target: T1, NUP153-expressing phage (Homo sapiens, UniProt P49790); assay: Phage binding and phage competition assay
T1 construct: host or cells: T7 phage clone isolated from human cDNA libraries (colon tumor, lung tumor, heart)
T1 sequence (P49790 245-326): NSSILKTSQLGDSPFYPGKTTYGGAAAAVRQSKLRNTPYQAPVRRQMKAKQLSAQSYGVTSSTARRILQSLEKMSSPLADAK

[2] = target: T2, purified N-terminal partial domain of NUP153 (Homo sapiens, UniProt P49790); assay: Surface plasmon resonance (SPR) analysis, BIAcore 2000; type: binding
T2 construct: a PCR-amplified N-terminus (amino acids 235-326) cDNA of NUP153 (NM_005124); inferred from the pET-28a vector and Ni-NTA purification; made in house; host or cells: Rosetta (DE3) E. coli
T2 sequence (P49790 235-326): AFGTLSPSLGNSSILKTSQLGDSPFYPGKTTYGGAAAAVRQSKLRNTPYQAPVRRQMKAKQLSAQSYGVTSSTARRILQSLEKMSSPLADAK
Text: To obtain the recombinant NUP153 protein from bacteria, a PCR-amplified N-terminus (amino acids 235-326) cDNA of NUP153 (NM_005124) was into the EcoRI/SalI site of pET-28a expression vector (Novagen, Billerica, Mass.). Rosetta™ (DE3) E. coli strains were transformed with the plasmid and N-terminus partial domain of NUP153 protein was purified using Ni-NTA agarose bead (Quiagen, Hilden, Germany). Bead bound protein was eluted with elution buffer containing high concentration of imidazole according to the manufacturer's instructions.
Biotin and biotinylated OMe-Syn were sequentially immobilized on the surface of a streptavidin-coated sensor chip. Molecular interaction analysis was performed using the BIAcore 2000 (BIAcore AB) as described previously (Shim et al., Chem. Biol 11, 1455-1463 (2004)). The SPR response curves were analyzed with BIAcore Evaluations software, version 3.1. The apparent association and dissociation constants were calculated from the kinetic constants equations: KA=ka/kd, KD=kd/ka
To examine the binding affinity of OMe-Syn to NUP153, the N-terminal partial domain of NUP153, which corresponds to phage coding sequences (FIG. 2E), was cloned and expressed in Escherichia coli. The cloning and purification of recombinant NUP153 is described in the experimental procedures. […]

[3] = test system: intersegmental vessel (ISV) angiogenesis of zebrafish embryos; assay: ISV angiogenesis in fli1a:EGFP transgenic zebrafish embryos; type: in vivo; conditions: 30 hpf
Experimental: (§1) Zebrafish were maintained on 14 hours light/dark cycle at 28° C. All experiments involving zebrafish were performed according to the National Institute of Health guidelines. Embryos were collected and raised in Ringer's solution according to standard protocol (Westerfield, 1995). Zebrafish were injected in Ringer's solution at the one-cell stage with morpholino oligonucleotides (MO). MO was obtained from Gene Tools (Philomath, Oreg.) with the following sequence to block 5′ translation of NUP153: 5′-[…]-3′ (SEQ ID NO:2) and splicing of NUP153: 5′-[…]-3′ (SEQ ID NO:3), respectively. DMSO and OMe-Syn stock solution (10 mM in DMSO) were dissolved in ringer's solution to appropriate concentrations. […] Embryos were added to the solutions at one cell stage. Tricaine supplied in Ringer's solution (0.6%, w/v) was used to anesthetize the embryos for imaging. Microscopy images of zebrafish were taken with Fluoview FV1000, Olympus.
(§2) The present inventors previously reported that OMe-Syn, an anti-angiogenic small molecule, inhibited VEGF-induced angiogenesis in vitro and in vivo (Kim et al., Biochem. Biophys. Res. Commun 399, 20-23 (2010)). The anti-angiogenic activity of OMe-Syn was further investigated using fli1a:EGFP transgenic zebrafish, a well-established model organism for studying angiogenesis through visualization of blood vessel development.
The present inventors further examined the function of NUP153 in vivo in intersegmental vessel (ISV) angiogenesis of zebrafish embryos using a morpholino oligonucleotide (MO) specific to NUP153. NUP153-specific MOs that block the splicing (n=31) or translation (n=28) of NUP153 were injected into fli1a:EGFP transgenic embryos at the one-cell stage. The blocking of NUP153 splicing was monitored by reverse transcription-polymerase chain reaction (RT-PCR) (FIG. 6A).

[4] = test system: retinal neovascularization; assay: Oxygen-induced retinopathy (OIR), counting vascular lumens; type: in vivo, C57BL/6 mice; conditions: mice, 20 μM in 1 μL PBS intravitreously on P14, read at P17, compared to control group
Text: OIR was induced as described by Smith et al. (Smith et al., Invest. Ophthalmol. Vis. Sci 35, 101-111 (1994)) with some modifications (Zhang et al., Diabetologia 44, 757-765 (2001)). Briefly, newborn mice were arbitrarily assigned to experimental and control groups. At postnatal day 7 (P7), pups (8-10 pups) in the experimental group were exposed to hyperoxia (75±0.5% 02) for 5 days (P7-P12) and then returned to normoxia (room air) for 6 days. Neovascularization occurs upon return to normoxia and peaks at P17. To assess the anti-angiogenic activity of OMe-Syn, the pups were injected intravitreously with 20 μM OMe-Syn in 1 μL PBS on P14, when maximum retinal neovascularization began.
At P17, the eyes were removed, fixed in 4% paraformaldehyde in 0.1 M phosphate buffer for 24 hours, and embedded in paraffin. Sagittal sections of 5 μm, each 30 μm apart, were cut through the cornea parallel to the optic nerve. The sections were stained with hematoxylin and eosin to assess retinal vasculature via light microscopy (Carl Zeiss, Chester, Va., USA). Any vascular lumens on the vitreal side of the inner limiting membrane were counted in at least 10 sections from each eye by two independent observers blind to treatment. The average intravitreal vessels/section was calculated for each group. There were at least six animals in each group.

VEGF mRNA = VEGF mRNA level in treated zebrafish embryos by RT-PCR; type: in vivo; conditions: compared with DMSO-treated controls
Experimental: as §1, §2

SMILES: CNC[C@H](OC)c1ccc(O)cc1 [OMe-Syn, R-(−)-β-O-Methylsynephrine]
- inhibition of VEGF-induced angiogenesis [1]: inhibit vascular endothelial growth factor (VEGF)-induced angiogenesis in vitro and in vivo
- NPC integrity and NPC protein interactions (NPC): leaves the NPC intact and does not disrupt NPC protein interactions
- binding of NUP153-expressing phage to immobilized compound (NUP153-expressing phage; phage binding assay, versus biotin): specifically bound to OMe-Syn
- phage competition: binding of phage to immobilized OMe-Syn after pre-incubation (NUP153-expressing phage; pre-incubation with OMe-Syn 50, 100 μM for 1 hour): blocked the binding of the phage to immobilized OMe-Syn in a dose-dependent manner
- Kd [2]: 2.4 nM
- SPR binding of purified NUP153 to immobilized compound ([2]; compound immobilized on sensor chip, purified NUP153 20 μM): specifically bound
- viability / toxicity of embryos [3]: without compromising the viability
- number of complete intersegmental vessels (ISVs) and angiogenic sprouts ([3]; OMe-Syn 2.5 and 5 μM, 5′-MO 8 ng, sp-MO 12 ng): decreased number of complete intersegmental vessels (ISVs) in a dose-dependent manner
- number of vascular lumens (retinal neovascularization) [4]: effectively reduced number of vascular lumens
- VEGF mRNA level (VEGF mRNA): reduced
